Measured values: ChEMBL document CHEMBL6071148, “Synthesis and biological evaluation of novel 3,6- amide and thioamide substituted- 2,3,4,9-tetrahydro-1H-carbazoles for anti-cancer activity” (Eur J Med Chem, 2024)
Activity calls are given as the source filed them. No cut-off for these calls is given here.

Assays:
[1] = tested on: MCF7; test: Cytotoxicity against human MCF7 cells assessed as inhibition of cell proliferation incubated for 72 hrs by MTT assay; type: functional, cell-based; conditions: MCF7, 72 h
[2] = tested on: A549; test: Cytotoxicity against human A549 cells assessed as inhibition of cell proliferation incubated for 72 hrs by MTT assay; type: functional, cell-based; conditions: A549, 72 h
[3] = tested on: HCT-116; test: Cytotoxicity against human HCT-116 cells assessed as inhibition of cell proliferation incubated for 72 hrs by MTT assay; type: functional, cell-based; conditions: HCT-116, 72 h
[4] = Cytotoxicity against human MRC5 cells assessed as inhibition of cell proliferation incubated for 72 hrs by MTT assay; type: toxicity, cell-based
[5] = tested on: MCF7; test: Inhibition of colony formation in human MCF7 cells assessed as reduction in clonogenic capacity incubated for 24 hrs by crystal violet staining based analysis; type: functional, cell-based
[6] = tested on: HCT-116; test: Inhibition of colony formation in human HCT-116 cells assessed as reduction in clonogenic capacity incubated for 24 hrs by crystal violet staining based analysis; type: functional, cell-based
[7] = tested on: A549; test: Inhibition of colony formation in human A549 cells assessed as reduction in clonogenic capacity incubated for 24 hrs by crystal violet staining based analysis; type: functional, cell-based
[8] = tested on: A549; test: Inhibition of cell adhesion in human A549 cells assessed as reduction in cell aggregates formation at IC50 incubated for 48 hrs by inverted phase contrast microscopic analysis; type: functional, cell-based
[9] = tested on: HCT-116; test: Inhibition of cell adhesion in human HCT-116 cells assessed as reduction in cell aggregates formation at IC50 incubated for 48 hrs by inverted phase contrast microscopic analysis; type: functional, cell-based
[10] = tested on: A549; test: Induction of cell cycle arrest in human A549 cells assessed as accumulation of cells at S phase at IC50 incubated for 24 hrs by PI staining based flow cytometric analysis (reference value: 39.41 +/- 2.54%); type: functional
[11] = tested on: A549; test: Induction of cell cycle arrest in human A549 cells assessed as accumulation of cells at G1 phase at IC50 incubated for 48 hrs by PI staining based flow cytometric analysis (reference value: 53.5 +/- 4.01%); type: functional
[12] = tested on: A549; test: Induction of cell cycle arrest in human A549 cells assessed as accumulation of cells at G2 phase at IC50 incubated for 48 hrs by PI staining based flow cytometric analysis (reference value: 38.15 +/- 1.80%); type: functional
[13] = tested on: HCT-116; test: Induction of cell cycle arrest in human HCT-116 cells assessed as accumulation of cells at G1 phase at IC50 incubated for 24 hrs by PI staining based flow cytometric analysis relative to control; type: functional
[14] = tested on: HCT-116; test: Induction of cell cycle arrest in human HCT-116 cells assessed as accumulation of cells at G2 phase at IC50 incubated for 24 hrs by PI staining based flow cytometric analysis relative to control; type: functional
[15] = tested on: HCT-116; test: Induction of cell cycle arrest in human HCT-116 cells assessed as accumulation of cells at G1 phase at IC50 incubated for 48 hrs by PI staining based flow cytometric analysis relative to control; type: functional
[16] = tested on: HCT-116; test: Induction of cell cycle arrest in human HCT-116 cells assessed as accumulation of cells at S phase at IC50 incubated for 48 hrs by PI staining based flow cytometric analysis; type: functional
[17] = tested on: HCT-116; test: Induction of DNA damage in human HCT-116 cells assessed as gammaH2AX positive cells at IC50 incubated for 48 hrs by PI staining based flow cytometric analysis (reference value: 6.24 +/- 1.94%); type: functional
[18] = tested on: Mitochondrial membrane; test: Induction of mitochondrial membrane depolarization in human A549 cells assessed as decrease in ratio of J-aggregates to J-monomer incubated for 24 hrs by JC-1 staining based flow cytometric analysis (reference value: 17.72 +/- 3.94%); type: cell membranes
[19] = tested on: Mitochondrial membrane; test: Induction of mitochondrial membrane depolarization in human HCT-116 cells assessed as increase in mitochondrial fission by measuring appearance of shortened mitochondria by confocal microscopic analysis; type: cell membranes
[20] = tested on: Mitochondrial membrane; test: Induction of mitochondrial membrane depolarization in human HCT-116 cells assessed as increase in mitochondrial fission by measuring appearance of spherical mitochondria by confocal microscopic analysis; type: cell membranes
[21] = tested on: Mitochondrial membrane; test: Induction of mitochondrial membrane depolarization in human HCT-116 cells assessed as increase in mitochondrial fission by measuring appearance of circular mitochondria by confocal microscopic analysis; type: cell membranes
[22] = tested on: Mitochondrial membrane; test: Disruption of mitochondrial membrane integrity in human HCT-116 cells assessed as change in mitochondrial size by TEM analysis; type: cell membranes
[23] = tested on: Mitochondrial membrane; test: Disruption of mitochondrial membrane integrity in human HCT-116 cells assessed as change in mitochondrial shape by TEM analysis; type: cell membranes
[24] = tested on: Mitochondrial membrane; test: Disruption of mitochondrial membrane integrity in human HCT-116 cells assessed as change in mitochondrial internal organization by TEM analysis; type: cell membranes
[25] = tested on: Mitochondrial membrane; test: Disruption of mitochondrial membrane integrity in human HCT-116 cells assessed as mitochondrial swelling by TEM analysis; type: cell membranes
[26] = tested on: Mitochondrial membrane; test: Disruption of mitochondrial membrane integrity in human HCT-116 cells assessed as disruption of normal mitochondrial distribution by TEM analysis; type: cell membranes
[27] = tested on: Mitochondrial membrane; test: Disruption of mitochondrial membrane integrity in human HCT-116 cells assessed as organization of mtDNA nucleoids within cells by TEM analysis; type: cell membranes
[28] = tested on: Mitochondrial membrane; test: Disruption of mitochondrial membrane integrity in human HCT-116 cells assessed as presence of large mitochondria by TEM analysis; type: cell membranes
[29] = tested on: Mitochondrial membrane; test: Disruption of mitochondrial membrane integrity in human HCT-116 cells assessed as presence of bloated mitochondria by TEM analysis; type: cell membranes
[30] = tested on: Mitochondrial membrane; test: Disruption of mitochondrial membrane integrity in human HCT-116 cells assessed as absence of well-developed cristae by TEM analysis; type: cell membranes
[31] = tested on: A549; test: Induction of apoptosis in human A549 cells assessed as apoptotic rate at IC50 incubated for 24 hrs by Annexin-V and 7-AAD staining based flow cytometric analysis (reference value: 4.56 +/- 0.81%); type: functional
[32] = tested on: A549; test: Induction of apoptosis in human A549 cells assessed as apoptotic rate at IC50 incubated for 48 hrs by Annexin-V and 7-AAD staining based flow cytometric analysis (reference value: 6.56 +/- 1.17%); type: functional
[33] = tested on: HCT-116; test: Induction of apoptosis in human HCT-116 cells assessed as increase in apoptotic cells incubated for 24 hrs by Annexin-V and 7-AAD staining based flow cytometric analysis (reference value: 8.10 +/- 2.16%); type: functional
[34] = tested on: HCT-116; test: Induction of apoptosis in human HCT-116 cells assessed as increase in apoptotic cells incubated for 48 hrs by Annexin-V and 7-AAD staining based flow cytometric analysis (reference value: 6.82 +/- 1.05%); type: functional
[35] = Toxicity in chicken embryo chorioallantoic membrane at nanomolar concentration measured at day 6 by Kaplan Mayer survival analysis; type: tissue-based, Gallus gallus; conditions: in vivo
[36] = Toxicity in chicken embryo chorioallantoic membrane assessed as survival rate at 1.5 uM measured at day 6 by Kaplan Mayer survival analysis relative to control; type: tissue-based, Gallus gallus
[37] = Toxicity in chicken embryo chorioallantoic membrane assessed as survival rate at 4.5 uM measured at day 6 by Kaplan Mayer survival analysis relative to control; type: tissue-based, Gallus gallus
[38] = tested on: A549; test: Induction of DNA damage in human A549 cells assessed as increase in gammaH2AX positive cells at IC50 incubated for 48 hrs by PI staining based flow cytometric analysis; type: functional, cell-based
[39] = tested on: Mitochondrial membrane; test: Disruption of mitochondrial membrane potential in human HCT-116 cells assessed as translocation of cytochrome c to cytoplasm at IC50 incubated for 48 hrs by confocal microscopic analysis; type: cell membranes
[40] = tested on: A549; test: Induction of cell cycle arrest in human A549 cells assessed as accumulation of cells at G1 phase at IC50 incubated for 24 hrs by PI staining based flow cytometric analysis (reference value: 37.40 +/- 2.40%); type: functional
[41] = tested on: A549; test: Induction of cell cycle arrest in human A549 cells assessed as accumulation of cells at G2 phase at IC50 incubated for 24 hrs by PI staining based flow cytometric analysis (reference value: 23.45 +/- 1.62%); type: functional
[42] = tested on: MCF7; test: Induction of cell cycle arrest in human MCF7 cells assessed as accumulation of cells at G1 phase at IC50 incubated for 24 hrs by PI staining based flow cytometric analysis relative to control; type: functional
[43] = tested on: MCF7; test: Induction of cell cycle arrest in human MCF7 cells assessed as accumulation of cells at S phase at IC50 incubated for 24 hrs by PI staining based flow cytometric analysis relative to control; type: functional
[44] = tested on: MCF7; test: Induction of cell cycle arrest in human MCF7 cells assessed as accumulation of cells at G2 phase at IC50 incubated for 24 hrs by PI staining based flow cytometric analysis relative to control; type: functional
[45] = tested on: HCT-116; test: Induction of cell cycle arrest in human HCT-116 cells at IC50 incubated for 48 hrs by PI staining based flow cytometric analysis; type: functional
[46] = tested on: MCF7; test: Induction of DNA damage in human MCF7 cells assessed as gammaH2AX positive cells at IC50 incubated for 48 hrs by PI staining based flow cytometric analysis (reference value: 7.58 +/- 1.23%); type: functional
[47] = tested on: A549; test: Induction of DNA damage in human A549 cells assessed as gammaH2AX positive cells at IC50 incubated for 48 hrs by PI staining based flow cytometric analysis (reference value: 4.90 +/- 0.50%); type: functional
[48] = tested on: MCF7; test: Induction of apoptosis in human MCF7 cells assessed as increase in apoptotic cells incubated for 24 hrs by Annexin-V and 7-AAD staining based flow cytometric analysis (reference value: 5.70 +/- 1.56%); type: functional
[49] = tested on: MCF7; test: Induction of apoptosis in human MCF7 cells assessed as increase in apoptotic cells incubated for 48 hrs by Annexin-V and 7-AAD staining based flow cytometric analysis (reference value: 7.53 +/- 1.16%); type: functional

SMILES: CC(=S)NC1CCc2[nH]c3ccc(OC(F)(F)F)cc3c2C1 (centres undefined)
- IC50 [1]: 31 µM
- IC50 [2]: 25.7 µM
- IC50 [3]: 23.6 µM
- IC50 at 72 h [4]: > 50 µM
- inhibition [5]: Dose-Dependent Effect
- inhibition [6]: Dose-Dependent Effect
- inhibition [7]: Dose-Dependent Effect
- inhibition [8]: Active
- inhibition [9]: Active
- Activity [10]: 15.45%
- Activity [11]: 53.35%
- Activity [12]: 46.75%
- Activity [13]: 16.95%
- Activity [14]: 17.95%
- Activity [15]: 31.15%
- Activity [16]: 18.9%
- Activity [17]: 14.63%
- Activity [18]: 16.9
- Activity [19]: Active
- Activity [20]: Active
- Activity [21]: Active
- Activity [22]: Active
- Activity [23]: Active
- Activity [24]: Active
- Activity [25]: Active
- Activity [26]: Active
- Activity [27]: Active
- Activity [28]: Active
- Activity [29]: Active
- Activity [30]: Active
- Activity [31]: 16.64%
- Activity [32]: 27.97%
- Activity [33]: 17.5%
- Activity [34]: 45.03%
- Activity [35]: Non-Toxic
- survival at 1.5 µM [36]: 70%
- survival at 4.5 µM [37]: 70%
- Activity [38]: Active
- Activity [39]: Active

SMILES: O=C1c2c(O)ccc(O)c2C(=O)c2c(NCCNCCO)ccc(NCCNCCO)c21 [MITOXANTRONE]
- IC50 [1]: 0.018 µM
- IC50 [2]: 0.164 µM
- IC50 [3]: 0.127 µM
- IC50 at 72 h [4]: 0.517 µM
- Activity [40]: 34.62%
- Activity [41]: 20.2%
- Activity [11]: 48.61%
- Activity [12]: 29.8%
- Activity [42]: 44.4%
- Activity [43]: 17.9%
- Activity [44]: 33.2%
- Activity [14]: 26.3%
- Activity [45]: Active
- Activity [46]: 23.01%
- Activity [17]: 32.47%
- Activity [47]: 14.22%
- Activity [31]: 30.26%
- Activity [32]: 32.27%
- Activity [33]: 32.01%
- Activity [34]: 31.1%
- Activity [48]: 11.55%
- Activity [49]: 67.63%

SMILES: CC(=O)Nc1ccc2[nH]c3c(c2c1)CC(NC(=O)OC(C)(C)C)CC3 (centres undefined)
- IC50 [1]: > 50 µM
- IC50 [2]: > 50 µM
- IC50 [3]: > 50 µM
- IC50 at 72 h [4]: > 50 µM

SMILES: CC(=O)Nc1ccc2[nH]c3c(c2c1)CC(NC(C)=O)CC3 (centres undefined)
- IC50 [1]: > 50 µM
- IC50 [2]: > 50 µM
- IC50 [3]: > 50 µM
- IC50 at 72 h [4]: > 50 µM
